{"source": "patent US6767569B1", "about": "“Surface decontamination of cooked sausage and processed meat and poultry products” (priority 1999, dated 2004)", "key": {"[1]": {"test_system": "microorganism", "assay": "Contacting the surfaces of the food product with peracetic acid solution", "format": "cell-based", "settings": "1,000 ppm peracetic acid solution for 12 seconds at 8 °C", "source_text": "The decontaminant solution preferably contains from about 500 to about 4,000 ppm of peracetic acid. The optimal concentration depends an the length of time to which the food products are exposed to the decontaminant solution and on the temperature of the decontaminant solution. […] For ensuring complete elimination of resistant microorganisms, such as Listeria, longer times and/or higher peracetic acid concentrations are preferred. Preferred peracetic acid concentrations are from about 1000 to about 2,000 ppm for contact times of 30 seconds to 1 minute to ensure complete kill of Listeria and other undesirable microorganisms at temperatures of from about 8-20° C. Microbiological analysis procedures are carried out periodically on samples of the treated frankfurters to ensure that the conditions used are maintaining a 100% kill of Listeria or other selected microorganisms."}, "[2]": {"assay": "Stability of peracetic acid solutions", "format": "physicochemical", "protocol": "Peracetic acid solutions were prepared in deionized water as for Example 2 to nominal concentrations of 1000 and 2000 mg/L. Actual peracetic acid concentrations were measured at 0 and 30 minutes at around 25° C. and 50° C."}, "[3]": {"test_system": "E. coli", "format": "cell-based", "settings": "E. coli; 35 °C, 24 hrs", "protocol": "(§1) Each strain was subcultured on tryptic soy agar (TSA, DIFCO, Detroit, Mich.) slants and stored at 4° C. Strains were individually transferred into 100 mL of sterile 2× BHI (DIFCO, Detroit, Mich.) and incubated at 35° C. for 24 hr. to reach ca. 10^9 colony forming units/mL (CFU/mL). Then, 25 mL of each strain of E. coli was transferred into a sterile bottle (mixture X), and 25 mL of each strain of each strain of Salmonella spp. was transferred into a sterile bottle (mixture Y). Mixtures X and Y were maintained separately throughout the test.\n(§2) Serial dilutions were made using Butterfields' Phosphate Buffer (BPB, Sigma, St. Louis, Mo.) in 1 mL aliquots prior to inoculation. BPB was prepared as a stock solution by adding 34 g Of KH2PO4 to 500 mL of distilled water. The pH was adjusted to 7.2, and the solution was brought to a volume of 1 L. The BPB stock was autoclaved for 20 min. at 121° C. and 15 lbs. of pressure. […] For glacial acetic acid (U.S.P.-F.C.C., J. T. Baker, Phillipsburg, N.J.), starting concentrations and serial dilutions were 50%, 25%, 12.5%, 6.25%, 3.12%, 1.56%, 0.78%, 0.39%, and a control (no treatment, buffer and culture). […] For peracetic acid 35.0% (STERIS 20™, STERIS Corporation, Mentor, Ohio), starting concentrations and serial dilutions were 17.5%, 8.75%, 4.38%, 2.19%, 1.09%, 0.55%, 0.30%, 0.14%, 0.07%, 0.03%, and a control. For liquid smoke (Hickory Specialties, Brentwood, Tenn.) starting concentrations and serial dilutions were 50%, 25%, 12.5%, 6.25%, 3.12%, 1.56%, 0.78%, 0.39%, and a control. Dilutions were prepared with deionized water.\n(§3) The test tubes were incubated at 35° C. for 24 hrs. and turbidity was evaluated using McFarland equivalence standards, to study the bacteriostatic properties of the diluted solutions. In addition, each dilution was plated to evaluate the bactericidal properties of, the diluted solutions. Using a 1 μL sterile loop, each concentration and control for either microorganism mixture was streaked on plate count agar (PCA, DIFCO, Detroit, Mich.). A selective agar was also used for each mixture, eosine methylene blue agar (EMB, DIFCO, Detroit, Mich.) for E. coli and xylose lysine decarboxylase agar (XLD, DIFCO, Detroit,Mich.) for Salmonella spp. All plates were incubated for 24 hrs. at 35° C. and were inspected for growth or no growth."}, "[4]": {"test_system": "Salmonella spp.", "format": "cell-based", "settings": "35 °C, 24 hrs", "protocol": "as §1, §2, §3"}, "[5]": {"settings": "nominal 1000 mg/L, 26-29 °C, pH 2.7"}, "[6]": {"settings": "nominal 1000 mg/L, 50 °C, pH 2.7"}, "[7]": {"settings": "nominal 2000 mg/L, 26-29 °C, pH 2.6"}, "[8]": {"settings": "nominal 2000 mg/L, 50 °C, pH 2.6"}}, "note": "Values joined by “and” are separate entries in the source; they are usually repeats but may differ in a detail not shown here. Identical values can stand only once.", "data": [{"smiles": "CC(=O)OO", "note": "[peracetic acid]", "values": [{"measurement": "reduction in the number of microorganism", "setting": "[1]", "result": "six log reduction"}, {"measurement": "stability of the solutions over the 30 minute period", "setting": "[2]; 1000 and 2000 mg/L nominal, around 25 °C and 50 °C", "result": "relatively stable"}, {"measurement": "Concentration at 0 mins", "setting": "[2]; [5]", "result": 1347, "unit": "µg/mL"}, {"measurement": "Concentration at 30 mins", "setting": "[2]; [5]", "result": 1355, "unit": "µg/mL"}, {"measurement": "Concentration at 0 mins", "setting": "[2]; [6]", "result": 1310, "unit": "µg/mL"}, {"measurement": "Concentration at 30 mins", "setting": "[2]; [6]", "result": 1284, "unit": "µg/mL"}, {"measurement": "Concentration at 0 mins", "setting": "[2]; [7]", "result": 2016, "unit": "µg/mL"}, {"measurement": "Concentration at 30 mins", "setting": "[2]; [7]", "result": 2017, "unit": "µg/mL"}, {"measurement": "Concentration at 0 mins", "setting": "[2]; [8]", "result": 1937, "unit": "µg/mL"}, {"measurement": "Concentration at 30 mins", "setting": "[2]; [8]", "result": 1959, "unit": "µg/mL"}, {"measurement": "MIC (%)", "setting": "[3]", "result": "0.137% and 0.14%"}, {"measurement": "MIC (%)", "setting": "[4]", "result": "0.137% and 0.14%"}]}]}
